Data reported in patent US11517645B2, “Bone-tendon graft biomaterial, use as a medical device and method of making same” (The Board of Trustees of the Leland Stanford Junior …, priority 2016, dated 2022).

Legend:
C2C12 cells [1] = assay: ALP staining, C2C12 osteoblast differentiation on QHM polymers with BMP-2 in media; format: cell-based, mouse; conditions: 25 μM blebbistatin
Method: ALP activity was detected according to the manufacturer's instructions (Sigma Aldrich, St. Louis, Mo.) as previously described with minor modifications^18,19.
For studies on the effect of Young's moduli on osteoblast differentiation (using uniform QHM polymer samples), C2C12 cells were seeded into 24 well plates containing uncoated QHM polymer samples (circular discs approximately 1 cm in diameter) at a density of 7.47×10^4 cells per cm^2 overnight in DMEM, 10% FBS and 1% PS media. […] Media were changed every 48 h. ALP staining was performed at 4, 8 and 14 days.
For studies on the effect of Young's moduli on osteoblast differentiation (using 0 s:300 s UV mechanically-graded QHM polymer samples), C2C12 cells were seeded into 24 well plates containing uncoated QHM polymer samples (rectangular specimens measuring approximately 0.5 cm×1 cm) at a density of 7.47×10^4 cells per cm^2 overnight in DMEM, 10% FBS and 1% PS media. […] Media were changed every 48 h. ALP staining were performed at 3 days post-seeding.
At designated time points, cells were fixed for 1 min in 3.7% formaldehyde and samples were incubated with ALP stain for 1 h. Color images of samples were acquired using an inverted Zeiss AxioObserver Z1 microscope equipped with an AxioCam ICC color camera and a Nikon D70 Digital camera (Nikon Corp., Tokyo, Japan). Where required, the ALP-stained images were quantified by calculating the average pixel intensity in Adobe Photoshop 7.0 as previously described^18,19.

C2C12 cells [2] = assay: SCX immunofluorescence, C2C12 tenocyte differentiation on QHM polymers; format: cell-based, mouse; conditions: fibrin-coated QHM polymers in vitro, 3 days
Method: (§1) Immunofluorescence staining was performed as previously described with minor modifications^18,19.
For studies on the effect of Young's moduli on osteoblast or tenocyte differentiation (using uniform or 0 s:300 s UV mechanically-graded QHM polymer samples), C2C12 cells were seeded into 24 well plates containing uncoated QHM polymer samples (circular discs approximately 1 cm in diameter or rectangular specimens measuring approximately 0.5 cm×1 cm) at a density of 7.47×10^4 cells per cm^2 overnight in DMEM, 10% FBS and 1% PS media. […] Media were changed every 48 h. SCX staining was performed at 3 days post-seeding. RUNT-RELATED TRANSCRIPTION FACTOR-2 (RUNX-2) or OSTEOCALCIN (OCN) staining was performed at 4 days post-seeding. […]
(§2) Samples were permeabilized with 0.2% Triton X-100 (Sigma Aldrich, St. Louis, Mo.), washed three times in wash buffer (PBS and 0.1% BSA) and blocked with 10% donkey serum (Jackson Immunoresearch, West Gove, Pa.) for 1 h at room temperature. […] Lastly, cells were rinsed five times with wash buffer (5 min each) and fluorescence images were acquired on an inverted Zeiss AxioObserver Z1 microscope equipped with an X-Cite® Series 120Q metal halide lamp, appropriate filters and an AxioCam MRm camera.

C57BL-6J mice = assay: Mouse subcutaneous implantation of growth factor-biopatterned QHM grafts; format: in vivo; conditions: 3 μg patterned on fibrin-coated QHM polymer, 14 days subcutaneous
Method: Mouse subcutaneous surgeries were performed in accordance with the guidelines established by Stanford University's Administrative Panel on Laboratory Animal Care. Wild-type C57BL-6J mice (Charles River Laboratories, Wilmington, Mass.) between 8 and 12 weeks of age (20-30 g) were used in this study. All mice were maintained in the Stanford Animal Facility, with a 12:12 h light-dark cycle and free access to standard laboratory food and water. Mice were anesthetized by inhalation with isoflurane (4% for induction, 2% for maintenance, Abbott Laboratories, Chicago) as well as administered 0.05 mg/kg Buprenorphine (Hospira Inc., Lake Forest, Ill.) and 25 mg/kg Cefazolin (Thermo Fisher Scientific, Waltham, Mass.) as an analgesic and anti-infective, respectively. Grafts (Square specimens 6×6×1 mm) were comprised of 0 s UV and 300 s UV QHM polymer regions (each measuring 3×3×1 mm) biopatterned with 1) no growth factor, 2) 3 μg FGF-2 on 0 s UV QHM polymer region and 3 μg BMP-2 on 300 s UV QHM polymer region or 3) 3 μg GDF-7 on 0 s UV QHM polymer region and 3 μg BMP-2 on 300 s UV QHM polymer region. Under sterile conditions, a 2.5 cm skin incision was made and grafts were sutured subcutaneously to the skin using 3-0 Nylon sutures (Oasis, Med-Vet International, Mettawa, Ill.) in a bilateral manner. Subsequently, the skin was re-approximated and closed with 3-0 Nylon sutures. […]

C2C12 cells [3] = assay: TENASCIN C and TENOMODULIN immunofluorescence, C2C12 on TCPS with FGF-2; format: cell-based, mouse; conditions: 50 or 100 ng/mL FGF-2, TCPS, 3 days
Method: as §1
For in vitro studies not involving QHM polymers, C2C12 cells were seeded into 24 well plates at a density of 7.47×10^4 cells per cm^2 in DMEM, 10% FBS, 1% PS media. The following day (Day 0), the media were changed to DMEM, 10% FBS, 1% PS with 0, 50 or 100 ng/mL FGF-2. Media were changed every 48 h. Cells were fixed in 4% paraformaldehyde (Electron Microscopy Sciences, Hatfield, Pa.) for 15 min and TENOMODULIN or TENASCIN C staining was performed at 3 days post-seeding.
as §2

| Molecule | Effect on BMP-2-induced ALP activity on QHM polymers (C2C12 cells [1]; 4 days) | Effect on C2C12 ALP activity on TCPS (C2C12 cells [1]; 4 days) | Inhibitory effect on ALP activity (C2C12 cells [1]; 8 days) | Inhibitory effect on ALP activity (C2C12 cells [1]; 14 days) | C2C12 SCX expression on FGF-2 patterns relative to off pattern controls (C2C12 cells [2]) | Tissue formed on growth factor pattern in vivo (C57BL-6J mice) | TENASCIN C expression relative to untreated controls (C2C12 cells [3]) | TENOMODULIN expression relative to untreated controls (C2C12 cells [3]) |
| --- | --- | --- | --- | --- | --- | --- | --- | --- |
| Cc1ccc2c(c1)C(=O)C1(O)CCN(c3ccccc3)C1=N2 (stereo not drawn) [blebbistatin] | inhibited slightly | did not inhibit | occurred only on 0 s UV QHM polymer | no longer observed | – | – | – | – |
| FGF-2: fibroblast growth factor-2 (Peprotech), tendon-promoting cue | – | – | – | – | largely increased | reminiscent of immature tendon | increased TENASCIN C expression | increased TENOMODULIN expression |
| GDF-7: growth and differentiation factor-7 (Sino Biological), tendon-promoting cue (protein, UniProt Q7Z4P5 322-450, looked up) Growth/differentiation factor …: TALAGTRTAQGSGGGAGRGHGRRGRSRCSRKPLHVDFKELGWDDWIIAPLDYEAYHCEGLCDFPLRSHLEPTNHAIIQTLLNSMAPDAAPASCCVPARLSPISILYIDAANNVVYKQYEDMVVEACGCR | – | – | – | – | – | reminiscent of immature tendon | – | – |
